Values quoted from earlier work in patent publication US12268783B2, “Platform drug delivery system utilizing crystal engineering and theanine dissolution” (THEAPRIN PHARMACEUTICALS, INC., priority 2015, dated 2025).

Columns and labels:
[1] = tested on: APP (Swedish Mutation) transgenic SH-SY5Y cell; conditions: via inhibition of the NMDA receptor pathway
[2] = tested on: human dopaminergic cell line SH-SY5Y; conditions: SH-SY5Y cultures subjected to rotenone and dieldrin, treated or pre-treated with L-Theanine
cancer cells = conditions: without an increase in DOX-induced side effects
[3] = in humans (so in the source)
rat brain regions = conditions: rat cerebral cortex, hippocampus and cerebellum
[4] = tested on: human red blood cells (RBC) exposed to venom or purified venom porin; conditions: RBC exposed to total venom or purified porin

Compound	protection against glutamate-induced excitotoxicity [1]	DNA fragmentation and apoptotic cell death [2]	effect on antitumor activity of doxorubicin (DOX) (cancer cells)	LD50 toxicity [3] [mg/kg]	protective effect against aluminum-induced neurotoxicity (rat brain regions)	potassium efflux from RBC [4]
CCNC(=O)CC[C@H](N)C(=O)O [Theanine, 5-N-ethyl-glutamine]	protects	decreased DNA fragmentation and apoptotic cell death	enhances the antitumor activity of doxorubicin	> 5000	counteracting the damage inflicted by aluminum	–
zinc gluconate	–	–	–	–	–	inhibited potassium efflux
